Experimental data: US6355472B2, “Method for producing nucleoside-5′-phosphate ester” (Ajinomoto Co., Inc., priority 1996, dated 2002)

target: T1, acid phosphatase derived from Morganella morganii (Morganella morganii, UniProt P28581); assay: not given; assay type: biochemical, Morganella morganii NCIMB 10466; conditions: not given
T1 construct: made in house; host or cells: Morganella morganii NCIMB 10466 (native strain, not recombinant; purified from cell-free extract)
T1 sequence (P28581 21-249): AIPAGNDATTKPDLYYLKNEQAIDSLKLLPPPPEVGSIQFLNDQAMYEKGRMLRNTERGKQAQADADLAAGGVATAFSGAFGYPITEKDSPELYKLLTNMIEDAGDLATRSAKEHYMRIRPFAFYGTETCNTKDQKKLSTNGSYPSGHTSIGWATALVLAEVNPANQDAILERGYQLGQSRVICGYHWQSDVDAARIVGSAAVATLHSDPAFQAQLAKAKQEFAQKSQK

Molecule	Effect of the addition of metal ion and inhibitor on activity
[Pb+2] [Pb^2+]	inhibited
[Hg+2] [Hg^2+]	inhibited
[Cu+2] [Cu^2+]	inhibited
[Ag+2] [Ag^2+]	inhibited
O=C(O)CI [iodoacetic acid]	inhibited

system: acid phosphatase derived from Escherichia blattae; assay: not given; assay type: biochemical, Escherichia blattae JCM 1650; conditions: not given

Molecule	Effect of the addition of metal ion and inhibitor on activity
[Pb+2] [Pb^2+]	inhibited
[Hg+2] [Hg^2+]	inhibited
[Fe+2] [Fe^2+]	inhibited
[Cu+2] [Cu^2+]	inhibited
[Ag+2] [Ag^2+]	inhibited
O=C(O)CI [iodoacetic acid]	inhibited

target: T2, acid phosphatase sample derived from Morganella morganii (Morganella morganii, UniProt P28581); assay: Phosphorylation reaction of various nucleosides by acid phosphatase sample; assay type: biochemical; conditions: sodium pyrophosphate 10 g/dl, nucleoside 2 g/dl, enzyme 50 units/dl, pH 4.0, 30° C., 3 hours
T2 construct: made in house; host or cells: Morganella morganii NCIMB 10466 (native strain, not recombinant; purified from cell-free extract)
Experimental: (§1) Sodium pyrophosphate (10 g/dl) and inosine, guanosine, uridine, or cytidine (2 g/dl) as a phosphate group acceptor were dissolved in sodium acetate buffer (pH 4.0), to which the enzyme sample prepared in Example 1 was added so that its concentration was 50 units/dl. The reaction mixture was incubated at 30° C. for 3 hours while maintaining pH at 4.0.

T2 sequence (P28581 21-249): as above

Molecule	Amount Produced (nucleoside-5′-ester) [g/dL]
Nc1ccn([C@@H]2O[C@H](CO)[C@@H](O)[C@H]2O)c(=O)n1 [Cytidine, cytidine]	0.98
OC[C@H]1O[C@@H](n2cnc3c(O)ncnc32)[C@H](O)[C@@H]1O [Inosine, inosine]	2.60
O=c1ccn([C@@H]2O[C@H](CO)[C@@H](O)[C@H]2O)c(=O)[nH]1 [Uridine, uridine]	1.30
Nc1nc2c(ncn2[C@@H]2O[C@H](CO)[C@@H](O)[C@H]2O)c(=O)[nH]1 [Guanosine, guanosine]	1.90

target: T2, acid phosphatase sample derived from Morganella morganii; assay: Production of 5′-inosinic acid from various phosphate group donors by acid phosphatase sample; assay type: biochemical; conditions: inosine 2 g/dl, phosphate group donor 10 g/dl, enzyme 50 units/dl, pH 4.0, 30° C., 3 hours
Experimental: (§2) Inosine (2 g/dl) and sodium tripolyphosphate, sodium polyphosphate (trade name: Polygon P, produced by Chiyoda Chemical), disodium phenylphosphate, or disodium carbamyl phosphate (10 g/dl) as a phosphate group donor were dissolved in sodium acetate buffer (pH 4.0), to which the enzyme sample prepared in Example 1 was added so that its concentration was 50 units/dl. The reaction mixture was incubated at 30° C. for 3 hours while maintaining pH at 4.0.

Molecule	Produced 5′-inosinic acid [g/dL]
O=P(O)(O)OP(=O)(O)OP(=O)(O)O [Sodium tripolyphosphate, sodium tripolyphosphate]	2.10
O=P([O-])([O-])Oc1ccccc1.[Na+].[Na+] [Disodium phenylphosphate, disodium phenylphosphate]	2.33
sodium polyphosphate	2.72
NC(=O)OP(=O)([O-])[O-].[Na+].[Na+] [Disodium carbamyl phosphate, disodium carbamyl phosphate]	2.54

system: acid phosphatase sample derived from Escherichia blattae; assay: Phosphorylation reaction of various nucleosides by acid phosphatase sample; assay type: biochemical; conditions: sodium pyrophosphate 15 g/dl, nucleoside 3 g/dl, enzyme 50 units/dl, pH 4.0, 35° C., 3 hours
Experimental: as §1, with “(15” for “(10”, “(3” for “(2”, “g/dl)” for “g/dl) as a phosphate group acceptor”, “4” for “1”, “35°” for “30°”

Molecule	Amount Produced (nucleoside-5′-ester) [g/dL]
Nc1ccn([C@@H]2O[C@H](CO)[C@@H](O)[C@H]2O)c(=O)n1 [Cytidine, cytidine]	1.22
OC[C@H]1O[C@@H](n2cnc3c(O)ncnc32)[C@H](O)[C@@H]1O [Inosine, inosine]	1.56
O=c1ccn([C@@H]2O[C@H](CO)[C@@H](O)[C@H]2O)c(=O)[nH]1 [Uridine, uridine]	1.87
Nc1nc2c(ncn2[C@@H]2O[C@H](CO)[C@@H](O)[C@H]2O)c(=O)[nH]1 [Guanosine, guanosine]	1.05

system: acid phosphatase sample derived from Escherichia blattae; assay: Production of 5′-inosinic acid from various phosphate group donors by acid phosphatase sample; assay type: biochemical; conditions: inosine 2 g/dl, phosphate group donor 10 g/dl, enzyme 50 units/dl, pH 4.0, 35° C., 3 hours
Experimental: as §2, with “Example 4” for “Example 1”, “at 35°” for “at 30°”

Molecule	Produced 5′-inosinic acid [g/dL]
O=P(O)(O)OP(=O)(O)OP(=O)(O)O [Sodium tripolyphosphate, sodium tripolyphosphate]	1.20
O=P([O-])([O-])Oc1ccccc1.[Na+].[Na+] [Disodium phenylphosphate, disodium phenylphosphate]	1.50
sodium polyphosphate	1.79
NC(=O)OP(=O)([O-])[O-].[Na+].[Na+] [Disodium carbamyl phosphate, disodium carbamyl phosphate]	1.53

system: Escherichia coli JM109/pEPI330; assay: Production of various nucleoside-5′-phosphate esters using microbial cells of the mutant strain; assay type: cell-based; conditions: sodium pyrophosphate 12 g/dl, nucleoside 6 g/dl, cells 200 mg/dl dry weight, pH 4.0, 35° C., 32 hours
Experimental: Escherichia coli JM109/pEPI330 into which the plasmid containing the gene encoding the acid phosphatase with lowered phosphomonoesterase activity had been introduced was inoculated to an L medium (50 ml) containing 100 μg/ml of ampicillin and 1 mM of IPTG, and it was cultivated at 37° C. for 16 hours.
Sodium pyrophosphate (12 g/dl), and inosine, guanosine, uridine, or cytidine (6 g/dl) as a phosphate group acceptor were dissolved in 100 mM sodium acetate buffer (pH 4.0), to which the microbial cells described above were added to give a cell concentration of 200 mg/dl as converted into a dry weight of the cells. The reaction mixture was incubated at 35° C. for 32 hours while maintaining pH at 4.0. Produced nucleotide contained only nucleoside-5′-phosphate ester. By-production of nucleoside-2′-phosphate ester and nucleoside-3′-phosphate ester was not observed at all.

Molecule	Amount Produced (nucleoside-5′-phosphate ester) [g/dL]
Nc1ccn([C@@H]2O[C@H](CO)[C@@H](O)[C@H]2O)c(=O)n1 [Cytidine, cytidine]	6.60
OC[C@H]1O[C@@H](n2cnc3c(O)ncnc32)[C@H](O)[C@@H]1O [Inosine, inosine]	7.45
O=c1ccn([C@@H]2O[C@H](CO)[C@@H](O)[C@H]2O)c(=O)[nH]1 [Uridine, uridine]	8.93
Nc1nc2c(ncn2[C@@H]2O[C@H](CO)[C@@H](O)[C@H]2O)c(=O)[nH]1 [Guanosine, guanosine]	4.77

system: Escherichia coli JM109/pEPI330; assay: Production of 5′-inosinic acid from various phosphate group donors using microbial cells of the mutant strain; assay type: cell-based; conditions: inosine 6 g/dl, phosphate group donor 12 g/dl, cells 200 mg/dl dry weight, pH 4.0, 35° C., 32 hours
Experimental: Escherichia coli JM109/pEPI330 into which the plasmid containing the mutant acid phosphatase gene had been introduced was inoculated to an L medium (50 ml) containing 100 μg/ml of ampicillin and 1 mM of IPTG, and it was cultivated at 37° C. for 16 hours.
Inosine (6 g/dl) and sodium tripolyphosphate, sodium polyphosphate (trade name: Polygon P, produced by Chiyoda Chemical), disodium phenylphosphate, or disodium carbamyl phosphate (12 g/dl) as a phosphate group donor were dissolved in 100 mM sodium acetate buffer (pH 4.0), to which the microbial cells described above were added to give a cell concentration of 200 mg/dl as converted into a dry weight of the cells. The reaction mixture was incubated at 35° C. for 32 hours while maintaining pH at 4.0. 5′-Inosinic acid was efficiently produced and accumulated by using any of the phosphate group donors. However, the accumulated amount of 5′-inosinic acid was the highest when polyphosphoric acid was used as the phosphate group donor.

Molecule	Produced 5′-inosinic acid [g/dL]
O=P(O)(O)OP(=O)(O)OP(=O)(O)O [Sodium tripolyphosphate, sodium tripolyphosphate]	5.96
O=P([O-])([O-])Oc1ccccc1.[Na+].[Na+] [Disodium phenylphosphate, disodium phenylphosphate]	7.60
sodium polyphosphate	8.84
NC(=O)OP(=O)([O-])[O-].[Na+].[Na+] [Disodium carbamyl phosphate, disodium carbamyl phosphate]	7.73

system: E. coli JM109/pEPI380; assay: Production of various nucleoside-5′-phosphate esters using new mutant acid phosphatase gene-containing strain; assay type: cell-based; conditions: pyrophosphoric acid 15 g/dl, nucleoside 8 g/dl, cells 100 mg/dl dry weight, pH 4.0, 35° C., 12 hours
Experimental: E. coli JM109/pEPI380 having introduced therein the plasmid containing the new mutant acid phosphatase gene was inoculated into 50 ml of an L medium containing 100 μg/ml of ampicillin and 1 mM of IPTG, and incubated at 37° C. for 16 hours.
Pyrophosphoric acid (15 g/dl) and 8 g/dl of inosine, […], uridine or cytidine as a phosphate acceptor were dissolved in a 100 mM acetate buffer ([…]). To this was added the above-mentioned strain such that the concentration reached 100 mg/dl in terms of the dry cell weight. The reaction was conducted at 35° C. for 12 hours while maintaining the pH at 4.0. The phosphorylation proceeded well with any of the nucleosides to form and accumulate the corresponding nucleoside-5′-phosphate esters. The nucleotide formed was only the nucleoside-5′-phosphate ester, and the formation of a nucleoside-2′-phosphate ester and a nucleoside-3′-phosphate ester as by-products was not observed at all.

Molecule	Amount of the Product (nucleoside-5′-phosphate ester) [g/dL]
Nc1ccn([C@@H]2O[C@H](CO)[C@@H](O)[C@H]2O)c(=O)n1 [Cytidine, cytidine]	10.65
OC[C@H]1O[C@@H](n2cnc3c(O)ncnc32)[C@H](O)[C@@H]1O [Inosine, inosine]	12.05
O=c1ccn([C@@H]2O[C@H](CO)[C@@H](O)[C@H]2O)c(=O)[nH]1 [Uridine, uridine]	13.28
Nc1nc2c(ncn2[C@@H]2O[C@H](CO)[C@@H](O)[C@H]2O)c(=O)[nH]1 [Guanosine, guanosine]	5.78

system: E. coli JM109/pEPI380; assay: Production of 5′-inosinic acid from various phosphate donors using new mutant acid phosphatase gene-containing strain; assay type: cell-based; conditions: inosine 6 g/dl, phosphate donor 15 g/dl, cells 100 mg/dl dry weight, pH 4.0, 35° C., 12 hours
Experimental: E. coli JM109/pEPI380 having introduced therein the plasmid containing the new mutant acid phosphatase gene was inoculated into 50 ml of an L medium containing 100 μg/ml of ampicillin and 1 mM of IPTG, and incubated at 37 C. for 16 hours.
Inosine (6 g/dl) and 15 g/dl of a tripolyphosphate, a polyphosphate (“Polygon P”, a trade name for a product of Chiyoda Kagaku K.K.), […] or disodium carbamylphosphate were dissolved in a 100-mM acetate buffer (pH 4.0). To this was added the above-mentioned strain such that the concentration reached 100 mg/dl in terms of the dry cell weight. The reaction was conducted at 35° C. for 12 hours while maintaining the pH at 4.0. 5′-Inosinic acid was formed and accumulated at good efficiency with any of the phosphate donors. Especially when a polyphosphate was used as a phosphate donor, 5′-inosinic acid was accumulated in the largest amount.

Molecule	Amount of 5′-inosinic acid formed [g/dL]
O=P(O)(O)OP(=O)(O)OP(=O)(O)O [Sodium tripolyphosphate, sodium tripolyphosphate]	10.84
CC(=O)OP(=O)([O-])[O-].[K+].[Li+] [potassium lithium acetylphosphate]	10.65
O=P([O-])([O-])Oc1ccccc1.[Na+].[Na+] [Disodium phenylphosphate, disodium phenylphosphate]	12.84
sodium polyphosphate	13.35
NC(=O)OP(=O)([O-])[O-].[Na+].[Na+] [Disodium carbamyl phosphate, disodium carbamyl phosphate]	12.42
